Results as given in US8034812B2, “Imidazopyridazine derivative having kinase inhibitory activity and pharmaceutical agent thereof” (Takeda Pharmaceutical Company Limited, priority 2006, dated 2011).

Assays:
[1] = target: T1, VEGFR2 intracellular domain protein (Homo sapiens, UniProt P35968); experiment: Determination of vascular endothelial growth factor receptor 2 (VEGFR2) kinase inhibitory activity (AlphaScreen); type: biochemical; details: read-out: VEGFR2 kinase inhibitory rate
T1 construct: made in house; host or cells: SF-21 insect cells, recombinant baculovirus BAC-VEGFR2
T1 sequence (P35968 786-1356 limits assumed): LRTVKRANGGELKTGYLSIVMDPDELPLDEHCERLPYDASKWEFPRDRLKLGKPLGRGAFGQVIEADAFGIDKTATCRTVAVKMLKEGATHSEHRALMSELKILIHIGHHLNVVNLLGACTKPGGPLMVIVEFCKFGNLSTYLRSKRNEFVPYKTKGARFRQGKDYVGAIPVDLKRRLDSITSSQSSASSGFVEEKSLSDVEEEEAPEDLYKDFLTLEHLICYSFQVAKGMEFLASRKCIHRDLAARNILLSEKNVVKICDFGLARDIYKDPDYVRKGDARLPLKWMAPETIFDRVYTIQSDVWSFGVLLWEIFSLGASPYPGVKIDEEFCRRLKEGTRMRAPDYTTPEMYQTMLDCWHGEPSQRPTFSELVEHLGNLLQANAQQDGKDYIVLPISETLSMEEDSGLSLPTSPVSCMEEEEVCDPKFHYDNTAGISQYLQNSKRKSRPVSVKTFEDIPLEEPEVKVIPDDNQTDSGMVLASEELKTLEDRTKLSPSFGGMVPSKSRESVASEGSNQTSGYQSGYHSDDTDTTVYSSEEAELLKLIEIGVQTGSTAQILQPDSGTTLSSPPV
Description: Human vascular endothelial growth factor receptor 2 (hereinafter to be referred to as VEGFR2) gene was cloned by PCR using cDNA Libraries Human Placenta (Clontech) as a template. The primer used for PCR was prepared from base sequence (Genbank Accession AF035121) information of VEGFR2 gene by adding a base sequence encoding flag peptide and a recognition sequence of the restriction enzyme to a base sequence (2671-4374 of Genbank Accession AF035121) encoding the VEGFR2 intracellular domain region, so that the protein contains an N-terminal Flag tag. The primer base sequence is shown below.
SF-21 cells were sown at 1×10^6 cells/mL to Sf-900II SFM medium (1 L, Invitrogen) containing 10% fetal bovine serum (trace), 50 mg/L Gentamicin (Invitrogen) and 0.1% Pluronic F-68 (Invitrogen), and shaking culture was performed using a 2 L volume Erlenmeyer flask at 27° C., 100 rpm. After culturing for 24 hrs, recombinant baculovirus BAC-VEGFR2 (13.4 mL) was added to the mixture, and the mixture was further cultured for 3 days. The culture medium was centrifuged at 2,000 rpm for 5 min to give virus-infected cells. The infected cells were washed with a phosphate buffered saline (Invitrogen), centrifuged under the same conditions, and the cells were preserved at −80° C. The cryopreserved cells were thawed in ice, suspended in buffer A (50 mM Tris buffer (30 mL, pH 7.4) containing 20% glycerol, 0.15 M NaCl) supplemented with Complete Protease Inhibitor (Boehringer), and ruptured 3 times with a Polytron homogenizer (Kinematica) at 20,000 rpm for 30 sec. The ruptured medium was clarified by centrifugation at 40,000 rpm for 30 min and filtered with a 0.45 μm filter. The filtrate was passed through a column packed with Anti-FLAG M2 Affinity Gel (4 mL, Sigma) at a flow rate of about 0.5 mL/min. The column was washed with buffer A, and eluted with buffer A containing 100 μg/mL of FLAG peptide. The eluate was concentrated with Vivaspin 20 (Vivascience) having a molecular weight cut off of 30K. The buffer of this concentrate was exchanged using NAP™ 25 column (Amersham Bioscience) equilibrated with buffer A. The fractions containing intracellular domain protein of VEGFR2 were collected, glycerol was added to the final concentration of 50% and cryopreserved at −80° C.
A test compound dissolved in dimethyl sulfoxide (DMSO) was diluted with a buffer (50 mM Tris-HCl (pH 7.5), 5 mM MgCl2, 5 mM MnCl2, 2 mM dithiothreitol, 0.01% Tween-20). To this compound solution (5 μL) was added a buffer (10 μL) containing 50 ng/mL of VEGFR2 intracellular domain protein and 250 ng/mL of biotin labeled polypeptide biotinyl-poly-Glu:Tyr (4:1) (CIS bio International). To the obtained mixture was added a buffer (10 μL) containing ATP (25 μM), the mixture was allowed to react at 25° C. for 5 min and the reaction was quenched with 25 μL of a stop solution (100 mM EDTA disodium salt, 62.5 mM HEPES buffer (pH 7.4), 250 mM NaCl, 0.1% bovine serum albumin, 10 μg/mL AlphaScreen assay streptavidin donor beads (Streptavidin Donor beads: PerkinElmer), 10 μg/mL AlphaScreen assay anti-phosphotyrosine recognition antibody PY-100 binding acceptor beads (Anti-phosphotyrosine (P-Tyr-100) Acceptor beads: PerkinElmer)). The reaction solution was allowed to stand at 25° C. for 16 hrs, and the wells were counted using a plate reader Fusion™ (PerkinElmer). The kinase inhibitory rate (%) of the test compound was calculated by the following formula: Inhibitory rate(%)=(1−(count of test compound−blank)÷(control−blank))×100

[2] = tested on: Human umbilical vein-derived vascular endothelial cells (HUVEC); experiment: Vascular endothelial cell growth inhibitory test (VEGF-stimulated HUVEC, XTT); type: cell-based; details: 120 h, 5 days of culture
Description: To be specific, HUVEC was suspended in a vascular endothelial cell medium containing the aforementioned 5% bovine fetal serum and plated on a 96 well flat bottom plate by 50 μL (3000 cells) each well. After culture overnight, various concentrations of the test substance and 120 ng/mL of vascular endothelial growth factor (VEGF) were dissolved in a vascular endothelial cell medium containing 5% bovine fetal serum and added to each well by 50 μL. After 5 days of culture, a XTT reagent (Wako Pure Chemical Industries, Ltd.) was added to each well by 10 μL, and the mixture was reacted in an incubator at 37° C., 5% carbon dioxide for 2-3 hr. The absorbance at 450 nm was measured by a microtiter plate reader and the cell growth inhibitory activity was determined.

[3] = target: T2, PDGFRα intracellular domain protein (Homo sapiens, UniProt P16234); experiment: Determination of platelet-derived growth factor receptor α (PDGFRα) kinase inhibitory activity (AlphaScreen); type: biochemical
T2 construct: 125 ng/ml of PDGFRα intracellular domain protein (UPSTATE); purchased UPSTATE
T2 sequence (P16234 550-1089 limits assumed): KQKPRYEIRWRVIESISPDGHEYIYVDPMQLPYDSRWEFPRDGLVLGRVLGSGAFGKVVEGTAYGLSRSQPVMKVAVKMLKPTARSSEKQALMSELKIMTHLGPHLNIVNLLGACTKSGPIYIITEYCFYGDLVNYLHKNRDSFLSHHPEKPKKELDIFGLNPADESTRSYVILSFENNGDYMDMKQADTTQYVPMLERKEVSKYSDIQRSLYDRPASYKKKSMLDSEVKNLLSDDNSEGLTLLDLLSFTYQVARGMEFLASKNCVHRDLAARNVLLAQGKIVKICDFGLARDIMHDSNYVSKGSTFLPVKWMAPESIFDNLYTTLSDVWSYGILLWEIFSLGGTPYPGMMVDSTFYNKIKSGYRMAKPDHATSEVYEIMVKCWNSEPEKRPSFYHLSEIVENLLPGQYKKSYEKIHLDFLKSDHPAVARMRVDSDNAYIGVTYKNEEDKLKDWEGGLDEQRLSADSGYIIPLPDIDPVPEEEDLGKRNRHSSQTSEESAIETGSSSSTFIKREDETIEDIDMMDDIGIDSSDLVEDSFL
Description: (§1) A test compound dissolved in dimethyl sulfoxide (DMSO) was diluted with a buffer (50 mM Tris-HCl (pH 7.5), 5 mM MgCl2, 5 mM MnCl2, 2 mM dithiothreitol, 0.01% Tween-20). To this compound solution (5 μL) was added a buffer (10 μL) containing 125 ng/ml of PDGFRα intracellular domain protein (UPSTATE) and 250 ng/mL of biotin labeled polypeptide biotinyl-poly-Glu:Tyr (4:1) (CIS bio International). At 5 min after mixing kinase enzyme and the compound and biotin labeled polypeptide, to the obtained mixture was added a buffer (10 μL) containing ATP (25 μM), the mixture was allowed to react at 25° C. for 30 min and the reaction was quenched with 25 μL of a stop solution (100 mM EDTA disodium salt, 62.5 mM HEPES buffer (pH 7.4), 250 mM NaCl, 0.1% bovine serum albumin, 10 μg/mL AlphaScreen assay streptavidin donor beads (Streptavidin Donor beads: PerkinElmer), 10 μg/mL AlphaScreen assay anti-phosphotyrosine recognition antibody PT-66 binding acceptor beads (Anti-phosphotyrosine (P-Tyr-66) Acceptor beads: PerkinElmer)). The reaction solution was allowed to stand at 25° C. for 16 hrs, and the wells were counted using a plate reader Fusion™ (PerkinElmer). The kinase inhibitory rate (%) of the test compound was calculated by the following formula: Inhibitory rate(%)=(1−(count of test compound−blank)÷(control−blank))×100
(§2) The count of the solution reacted without addition of the compound was used as a “control”, and the count of the solution without the compound and ATP was used as a “blank”.

[4] = target: T3, PDGFRβ intracellular domain protein (Homo sapiens, UniProt P09619); experiment: Determination of platelet-derived growth factor receptor β (PDGFRβ) kinase inhibitory activity (AlphaScreen); type: biochemical
T3 construct: 125 ng/ml of PDGFRβ intracellular domain protein (UPSTATE); purchased UPSTATE
T3 sequence (P09619 554-1106 limits assumed): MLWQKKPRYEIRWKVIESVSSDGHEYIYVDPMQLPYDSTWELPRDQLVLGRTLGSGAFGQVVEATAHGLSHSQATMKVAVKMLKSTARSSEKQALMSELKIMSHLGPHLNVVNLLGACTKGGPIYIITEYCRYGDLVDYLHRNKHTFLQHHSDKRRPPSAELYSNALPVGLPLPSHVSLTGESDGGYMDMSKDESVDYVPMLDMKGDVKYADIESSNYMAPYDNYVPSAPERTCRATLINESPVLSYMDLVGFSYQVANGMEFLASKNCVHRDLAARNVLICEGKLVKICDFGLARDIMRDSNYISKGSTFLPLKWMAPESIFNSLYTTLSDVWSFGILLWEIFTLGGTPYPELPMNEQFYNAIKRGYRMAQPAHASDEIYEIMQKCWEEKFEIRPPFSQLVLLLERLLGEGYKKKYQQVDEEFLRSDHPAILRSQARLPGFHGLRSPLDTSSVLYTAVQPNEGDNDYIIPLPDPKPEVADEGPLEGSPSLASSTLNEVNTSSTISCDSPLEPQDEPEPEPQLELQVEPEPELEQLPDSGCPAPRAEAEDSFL
Description: as §1, with “of PDGFRβ” for “of PDGFRα”, “Donor Beads:” for “Donor beads:”, “test compound[…])÷(control−blank))×100” for “test compound−blank)÷(control−blank))×100”
as §2

inhibition at 1 µM [1]	IC50 [3]	IC50 [4]	SMILES	IC50 [2]
≥ 90%	≤ 500 nM	≤ 500 nM	CCn1nccc1C(=O)Nc1cc(Oc2ccc3nc(NC(=O)C4CC4)cn3n2)ccc1F [Example 174, N-[5-({2-[(cyclopropylcarbonyl)amino]imidazo[1,2-b]pyridazin-6-yl}oxy)-2-fluorophenyl]-1-ethyl-1H-pyrazole-5-carboxamide]	≤ 500 nM
≥ 90%	≤ 500 nM	≤ 500 nM	COc1cc(C(=O)Nc2cc(Oc3ccc4nc(NC(=O)C5CC5)cn4n3)ccc2C)n(C)n1 [Example 302, N-[5-({2-[(cyclopropylcarbonyl)amino]imidazo[1,2-b]pyridazin-6-yl}oxy)-2-methylphenyl]-3-methoxy-1-methyl-1H-pyrazole-5-carboxamide]	≤ 500 nM
≥ 90%	≤ 500 nM	≤ 500 nM	Cc1cccnc1C(=O)Nc1cccc(Oc2ccc3nc(NC(=O)C4CC4)cn3n2)c1 [Example 187, N-[3-({2-[(cyclopropylcarbonyl)amino]imidazo[1,2-b]pyridazin-6-yl}oxy)phenyl]-3-methylpyridine-2-carboxamide]	≤ 500 nM
≥ 90%	≤ 500 nM	≤ 500 nM	CC#CC(=O)Nc1cc(Oc2ccc3nc(NC(=O)C4CC4)cn3n2)ccc1C [Example 241, N-{6-[3-(but-2-ynoylamino)-4-methylphenoxy]imidazo[1,2-b]pyridazin-2-yl}cyclopropanecarboxamide]	≤ 500 nM
≥ 90%	≤ 500 nM	≤ 500 nM	Cc1cc(C(=O)Nc2cccc(Nc3ccc4nc(NC(=O)C5CC5)cn4n3)c2)n(C)n1 [Example 317, N-[3-({2-[(cyclopropylcarbonyl)amino]imidazo[1,2-b]pyridazin-6-yl}amino)phenyl]-1,3-dimethyl-1H-pyrazole-5-carboxamide]	≤ 500 nM

Further lines, the compound ahead of its results:

SMILES	inhibition at 1 µM [1]	IC50 [3]	IC50 [4]	IC50 [2]
Cc1nc(C)c(C(=O)Nc2cc(Oc3ccc4nc(NC(=O)C5CC5)cn4n3)ccc2F)o1 [Example 289, N-[5-({2-[(cyclopropylcarbonyl)amino]imidazo[1,2-b]pyridazin-6-yl}oxy)-2-fluorophenyl]-2,4-dimethyl-1,3-oxazole-5-carboxamide]	≥ 90%	≤ 500 nM	≤ 500 nM	≤ 500 nM
CCn1cc(C(=O)Nc2cc(Oc3ccc4nc(NC(=O)C5CC5)cn4n3)ccc2F)c(C)n1 [Example 161, N-[5-({2-[(cyclopropylcarbonyl)amino]imidazo[1,2-b]pyridazin-6-yl}oxy)-2-fluorophenyl]-1-ethyl-3-methyl-1H-pyrazole-4-carboxamide]	≥ 90%	≤ 500 nM	≤ 500 nM	≤ 500 nM
O=C(Nc1cccc(Oc2ccc3nc(NC(=O)C4CC4)cn3n2)c1)c1ccccc1 [Example 165, N-[3-({2-[(cyclopropylcarbonyl)amino]imidazo[1,2-b]pyridazin-6-yl}oxy)phenyl]benzamide]	≥ 90%	≤ 500 nM	≤ 500 nM	≤ 500 nM
Cc1nc(C)c(C(=O)Nc2cc(Oc3ccc4nc(NC(=O)C5CC5)cn4n3)ccc2F)s1 [Example 267, N-[5-({2-[(cyclopropylcarbonyl)amino]imidazo[1,2-b]pyridazin-6-yl}oxy)-2-fluorophenyl]-2,4-dimethyl-1,3-thiazole-5-carboxamide]	≥ 90%	≤ 500 nM	≤ 500 nM	≤ 500 nM
Cc1nn(C)cc1C(=O)Nc1cc(Oc2ccc3nc(NC(=O)C4CC4)cn3n2)ccc1F [Example 173, N-[5-({2-[(cyclopropylcarbonyl)amino]imidazo[1,2-b]pyridazin-6-yl}oxy)-2-fluorophenyl]-1,3-dimethyl-1H-pyrazole-4-carboxamide]	≥ 90%	≤ 500 nM	≤ 500 nM	≤ 500 nM
CCc1nc(C)c(C(=O)Nc2cc(Oc3ccc4nc(NC(=O)C5CC5)cn4n3)ccc2F)o1 [Example 314, N-[5-({2-[(cyclopropylcarbonyl)amino]imidazo[1,2-b]pyridazin-6-yl}oxy)-2-fluorophenyl]-2-ethyl-4-methyl-1,3-oxazole-5-carboxamide]	≥ 90%	≤ 500 nM	≤ 500 nM	≤ 500 nM
COc1cc(C(=O)Nc2cc(Oc3ccc4nc(NC(=O)C5CC5)cn4n3)ccc2F)n(C)n1 [Example 180, N-[5-({2-[(cyclopropylcarbonyl)amino]imidazo[1,2-b]pyridazin-6-yl}oxy)-2-fluorophenyl]-3-methoxy-1-methyl-1H-pyrazole-5-carboxamide]	≥ 90%	≤ 500 nM	≤ 500 nM	≤ 500 nM
